These results are taken from patent US5763476A, “Sublingual or buccal pharmaceutical composition” (priority 1994, dated 1998).

Data set [1] is described as follows: Absorption from aqueous compositions kept under the tongue or in the mouth. Format: in vivo. The settings on record: aqueous compositions kept under the tongue or in the mouth of a patient.
Data set [2] concerns histamine. The settings on record: cited from earlier work.
Data set [3] has as its system human volunteers. As to the kind of experiment: Phase I clinical studies, peroral administration. Format: in vivo.
Data set [4] can be described thus: Cardiovascular side effects on sublingual or buccal administration. It counts as in vivo.
For data set [5], the system named is serotonin. The settings on record: cited from earlier work.

For the compound `CN1C[C@@H]2c3ccccc3Oc3ccc(Cl)cc3[C@H]2C1` (relative stereo) [trans-5-chloro-2-methyl-2,3,3a,12b-tetrahydro-1H-dibenz[2,3:6,7]oxepino[4,5-c]pyrrole], in data set [1], the Absorption result is reported as “rapidly absorbed”. For the same compound, the Antihistamine activity result in data set [2] is “antihistamine and antiserotonin activities”. Also, in data set [3], the Cardiotoxic effects entry is “serious cardiotoxic effects, e.g. postural hypotension and/or impairment of baroreceptor functioning, occurred”. Further, the Cardiovascular side effects entry in data set [4] is on record as “substantially less cardiovascular side effects”. For the same compound, in data set [5], the Antiserotonin activity entry is “antihistamine and antiserotonin activities”.
